According to patent US12280121B2, “Immunoconjugates and methods” (Immunome, Inc., priority 2021, dated 2025):
Read-outs that look alike come from different tables or passages of the source. Non-standard residues stand in square brackets, D forms with d. Residues, ends and D or L forms follow the SMILES beside them. *: point of attachment. Dolaproine = CO[C@@H]([C@@H]1CCCN1)[C@@H](C)C(=O)O; Dil = CC[C@H](C)[C@H](NC)[C@@H](CC(=O)O)OC; X1 = C[C@@H](N*)[C@@H](O)c1ccccc1; NMeV = CN[C@H](C(=O)O)C(C)C

Experiments:
[1] = system: Jeko-1; assay: CTG assay of ROR-1 ADCs and toxins, JeKo-1; assay type: cell-based
Experimental: FIG. 33 illustrates a CTG assay wherein ROR+ (JeKo-1) cells were incubated with the ADCs generated as described in FIG. 32 in serial three-fold dilutions and cell viability was assessed after 72 hours.
(§1) The CTG assay is a method of determining the number of viable cells in culture based on quantitation of the ATP present, an indicator of metabolically active cells. The cell assay requires the addition of a single reagent, Cell Titer Glo, in which cells are lysed and generation of a luminescent signal is produced. The luminescent signal is proportional to the amount of ATP present. The amount of ATP is directly proportional to the number of cells present in culture. For our assay, cells were ensured to be in log-phase for either Jeko-1 or MDA-MB-468. Cells were transferred to 96 wells and treated with compounds in three-fold serial dilution starting from 1 μM to 0.0000508 μM (10 points dilution), for 72 h. Cell viability was analyzed with CellTiter-Glo® Luminescent Cell Viability Assay (Promega) following manufactures' instruction. Percentage of viable cells in each compound concentration was determined by normalizing with the luminescence of vehicle control and plotted into percentage of viability versus dose response curve by nonlinear fit in GraphPad Prism software.
Novel ROR-1 antibody-drug conjugates (ADCs) were evaluated by CTG Assay in a similar manner as was described in Example 24 for screening of payloads. […] Briefly ROR+(JeKo-1/MDA-MB-468) or ROR− (Ramos) cells were transferred to 96 wells and treated with the ADCs in three-fold serial dilution starting from […] (10 points dilution), for 72 h. Cell viability was analyzed with CellTiter-Glo® Luminescent Cell Viability Assay (Promega) following the manufactures' instructions (FIG. 33). The percentage of viable cells at each ADC concentration was determined by normalizing with the luminescence of vehicle control and plotted into percentage of viability versus dose response curve by nonlinear fit in GraphPad Prism software.

[2] = system: MDA-MB-468; assay: CTG assay (CellTiter-Glo cell viability), MDA-MB-468, payload compounds; assay type: cell-based
Source text: as §1

[3] = Human liver microsome clearance (HLM CL); assay type: in vitro ADME
Experimental: (§2) Working solution was prepared by adding 5 μL of compound and control stock solution (10 mM in dimethyl sulfoxide, DMSO) to 495 μL of acetonitrile (ACN) (intermediate solution concentration: 100 μM, 99% CAN and 1% DMSO. The appropriate concentrations of microsome working solutions were prepared in 100 mM potassium phosphate buffer. After reaction plates containing mixtures of compound and microsomes were pre-incubated at 37° C. for 10 min, […] of 2 mM of NADPH and 2 mM of MgCl2 solution was added to start the reaction. The final concentrations of incubation medium were as follows: microsome—0.5 mg protein/mL, test compound/control […], NADPH—1 mM, MgCl2 —1 mM, acetonitrile 0.99%, DMSO 0.01%. Incubations were performed at 37° C. for 60 min. Samples were taken out at TO, T5, T15, T30, T45 and T60, which was added intermediately to the ice-cold stop solution (acetonitrile with 200 ng/mL of tobutamide and labetalol as internal standard) (125 μl), shaken for 10 min, centrifuged at 4000 rpm for 20 min at 4° C. Analytical plates were analyzed by LCMS.
(§3) Human liver microsome clearance assay assess metabolism by the cytochrome P450 system (phase I enzymes). These enzymes oxidize substrates by incorporating oxygen atoms into hydrocarbons, thus causing the introduction of hydroxyl groups, or N- O- and S-dealkylation of substrates and forming more polar products easier to be cleared. Human hepatocyte clearance assay measures more broadly the overall cellular metabolism of the test compound (phase I and phase II enzyme pathways). Phase II enzymes catalyze the conjugation reaction of xenobiotic metabolites and charged species, such as glutathione, sulfate, glycine, or glucuronic acid to form even more polar compounds for easier clearance.

[4] = PAMPA (Parallel Artificial Membrane Permeability Assay); assay type: physicochemical
Source text: PAMPA is a method which determines the permeability of substances from a donor compartment, through a lipid-infused artificial membrane into an acceptor compartment. See Ottaviani, G.; Martel, S.; Carrupt, P-A. “Parallel Artificial Membrane Permeability Assay: A New Membrane for the Fast Prediction of Passive Human Skin Permeability”, Journal of Medicinal Chemistry, 2006, 49 (13), 3948-3954). A multi-well microtitre plate is used for the donor and a membrane/acceptor compartment is placed on top; the whole assembly is commonly referred to as a “sandwich”. At the beginning of the test, the drug is added to the donor compartment, and the acceptor compartment is drug-free. After an incubation period which may include stirring, the sandwich is separated, and the amount of drug is measured in each compartment. Mass balance allows calculation of drug that remains in the membrane.
The PAMPA was performed by Pion Inc using the GIT-0 lipid and 5 μM donor solution in pH 5.0 and pH 7.4 PRISMA buffer (containing 0.05% DMSO). The higher PAMPA data has been associated with better bystander killing. (Ogitani Y.; Hagihara K.; Oitate, M.; Naito, H.; Agatsuma T. “Bystander killing effect of DS-8201a, a novel anti-human epidermal growth factor receptor 2 antibody-drug conjugate, in tumors with human epidermal growth factor receptor 2 heterogeneity” Cancer Science, 2016, 107 (7), 1039-1046).

[5] = Human hepatocyte clearance (HHEP CL); assay type: in vitro ADME; set-up: CLint scaled / half-life: dose or concentration left out as unconfirmed; conditions: both sexes
Experimental: (§4) Suspensions of human hepatocytes (from 10 mixed gender human donors, final concentration 0.5×10^6 cell/mL) in Williams' E medium were incubated for 90 min with a test compound (0.90% acetonitrile and 0.10% DMSO, final concentration […]) and positive controls (7-Ethoxycoumarin, 7-Hydroxycoumarin, 0.90% acetonitrile and 0.10% DMSO, final concentration […]), with constant shaking at about 600 rpm at 37° C. in an incubator at 5% CO2 and 95% humidity. The total volume of incubation was 200 μl. A sample ([…]) was taken out at TO, 15, 30, 60 and 90 min, which was added intermediately to the ice-cold stop solution (acetonitrile with 200 ng/mL of tobutamide and labetalol as internal standard) (125 μl), and vortexed at 500 rpm for 10 min, centrifuged at 3220×g for 20 min at 4° C. Analytical plates are sealed and stored at 4° C. until LCMS analysis. Viability of hepatocytes at pre-incubation was determined to be 84.5%.
as §3

[6] = system: Jeko-1; assay: CTG assay (CellTiter-Glo cell viability), Jeko-1, payload compounds; assay type: cell-based
Source text: as §1

[7] = system: human liver microsome; assay: Human liver microsome clearance (HLM CL); assay type: in vitro ADME; conditions: human liver microsomes 0.5 mg protein/mL, NADPH, 60 min
Experimental: as §2, §3

[8] = system: human hepatocytes; assay: Human hepatocyte clearance (HHEP CL); assay type: in vitro ADME; set-up: CLint scaled / half-life: dose or concentration left out as unconfirmed; conditions: human hepatocytes, 90 min incubation
Experimental: as §4, §3

[9] = AC-SINS self-interaction assay; assay type: physicochemical; conditions: FIG. 30
Experimental: Antibody developability was assessed by performing an AC-SINS assay and evaluating the potential for self-interaction.
An initial assessment of antibody developability was performed by AC-SINS to evaluate the potential for self-interaction (FIG. 30).

[10] = Homo sapiens, Jeko-1, average of run 1 and run 2, read-out: Avg. IC50
[11] = Homo sapiens, Jeko-1 P3, run 1, 72 h, read-out: Jeko-1 P3 (RUN1) IC50
[12] = Homo sapiens, Jeko-1 P4, run 2, 72 h, read-out: Jeko-1 P4 (RUN2) IC50
[13] = Homo sapiens, MDA-MB-468, 72 h, CellTiter-Glo, read-out: MDA-MB-468 IC50
[14] = Homo sapiens, JeKo-1, 72 h, CellTiter-Glo, read-out: JeKo-1 IC50
[15] = human liver microsomes 0.5 mg protein/mL, NADPH, 60 min, read-out: HLM Cl (human liver microsome clearance)
[16] = Jeko-1, average of run 1 and run 2, read-out: Avg. IC50
[17] = Jeko-1 P3, run 1, 72 h, read-out: Jeko-1 P3 (RUN1) IC50

Which results are given for `CC[C@@]1(O)C(=O)OCc2c1cc1n(c2=O)Cc2c-1nc1cc(F)c(C)c3c1c2[C@@H](OCCO)CC3` (single isomer, unassigned) [Compound 5-48]?
IC50 [1, 10]: 0.5 nM; IC50 [1, 11]: 0.5 nM; IC50 [1, 12]: 0.5 nM; IC50 [2, 13]: 8.3 nM; CLint scaled ([3]; human, microsomes): 17.4 mL/min/kg; half-life ([3]; human, microsomes): 1.2 h; Papp at 5 μM ([4]; pH 5): 69 ×10⁻⁶ cm/s; Papp at 5 μM ([4]; pH 7.4): 9 ×10⁻⁶ cm/s; CLint scaled ([5]; human, hepatocytes): 75.5 mL/min/kg; half-life ([5]; human, hepatocytes): 0.852 h; IC50 [6, 14]: 0.68 nM

With `CC[C@@]1(O)C(=O)OCc2c1cc1n(c2=O)Cc2c-1nc1cc(F)c(C)c3c1c2[C@@](C)(NC(=O)CO)CC3` [Compound 9-74, N-((1S,9S)-9-ethyl-5-fluoro-9-hydroxy-1,4-dimethyl-10,13-dioxo-1,2,3,9,10,12,13,15-octahydrobenzo[de]pyrano[3′,4′:6,7]indolizino[1,2-b]quinolin-1-yl)-2-hydroxyacetamide] as the compound, how does the IC50 [1, 10] read?
The IC50 was 3.1 nM.

And the IC50 [1, 11]?
Its IC50 is 2.4 nM.

What about the IC50 [1, 12] of the same compound?
Its IC50 is 3.7 nM.

And the IC50 [2, 13]?
Its IC50 is 57.7 nM.

What about the CLint scaled ([3]; human, microsomes) of the same compound?
Its CLint scaled is 22.7 mL/min/kg.

What about the half-life ([3]; human, microsomes) of the same compound?
The half-life was 0.915 h.

What about the Papp at 5 μM ([4]; pH 5) of the same compound?
The Papp at 5 μM was 36.1 ×10⁻⁶ cm/s.

And the Papp at 5 μM ([4]; pH 7.4)?
The Papp at 5 μM was 4.4 ×10⁻⁶ cm/s.

And the CLint scaled ([5]; human, hepatocytes)?
Its CLint scaled is 57.5 mL/min/kg.

What about the half-life ([5]; human, hepatocytes) of the same compound?
Its half-life is 1.12 h.

And the IC50 [6, 14]?
Its IC50 is 4.1 nM.

Which results are given for `CC[C@@]1(O)C(=O)OCc2c1cc1n(c2=O)Cc2c-1nc1cc(F)c(C)c3c1c2[C@](C)(NCCO)CC3.Cl` [Compound 17-96, (1R,9S)-9-ethyl-5-fluoro-9-hydroxy-1-((2-hydroxyethyl)amino)-1,4-dimethyl-2,3,12,15-tetrahydrobenzo[de]pyrano[3′,4′:6,7]indolizino [1,2-b]quinoline-10,13(1H,9H)-dione hydrochloride]?
IC50 [2, 13]: 22 nM; half-life ([3]; human liver microsomes 0.5 mg protein/mL, NADPH, 60 min, read-out: HLM (T1/2)): 0.292 h; CLint scaled [3, 15]: 71.3 mL/min/kg; Papp at 5 μM ([4]; pH 5.0 PRISMA buffer, GIT-0 lipid, 5 μM donor solution, read-out: PAMPA Pe pH 5.0): 62.6 ×10⁻⁶ cm/s; Papp at 5 μM ([4]; pH 7.4 PRISMA buffer, GIT-0 lipid, 5 μM donor solution, read-out: PAMPA Pe pH 7.4): 4.3 ×10⁻⁶ cm/s; half-life ([5]; human hepatocytes, 90 min incubation, read-out: HHEP (T1/2)): 1.37 h; CLint scaled ([5]; human hepatocytes, 90 min incubation, read-out: HHEP Cl (human hepatocytes intrinsic clearance)): 47.1 mL/min/kg; IC50 [6, 14]: 2.1 nM

Which results are given for `CC[C@@]1(O)C(=O)OCc2c1cc1n(c2=O)Cc2c-1nc1cc(F)c(C)c3c1c2[C@@H](NC(=O)CO)CC3` [Dxd, reference compound]?
IC50 [1, 16]: 0.9 nM; IC50 [1, 17]: 0.9 nM; IC50 ([2]; 72 h, CellTiter-Glo, read-out: MDA-MB-468 IC50): 11.6 nM; HLM (T1/2) [7]: (>145); HLM Cl (human liver microsome clearance) [7]: 8.6 mL/min/kg; HHEP (T1/2) [8]: (79.0) min; HHEP Cl (human hepatocytes intrinsic clearance) [8]: 48.7 mL/min/kg; IC50 ([6]; 72 h, CellTiter-Glo, read-out: JeKo-1 IC50): 1.42 nM

Which IC50 ([2]; Homo sapiens, MDA-MB-468, 72 h, read-out: MDA-MB-468 IC50 (nM)) does the source give for `CC[C@@]1(O)C(=O)OCc2c1cc1n(c2=O)Cc2c-1nc1cc(F)c(C)c3c1c2[C@@H](N)CC3.CS(=O)(=O)O` [Exatecan, (1S,9S)-1-amino-9-ethyl-5-fluoro-9-hydroxy-4-methyl-2,3,12,15-tetrahydro-benzo[de]pyrano [3′,4′:6,7]indolizino[1,2-b]quinoline-10,13(1H,9H)-dione methanesulfonate, reference compound] here?
Its IC50 is 6.2 nM.

And the CLint scaled [3, 15]?
The CLint scaled was 11.7 mL/min/kg.

And the half-life ([3]; human, microsomes)?
Its half-life is 1.77 h.

What about the Papp ([4]; pH 5) of the same compound?
Its Papp is 37.2 ×10⁻⁶ cm/s.

And the Papp ([4]; pH 7.4)?
Its Papp is 5.7 ×10⁻⁶ cm/s.

And the CLint scaled ([5]; human hepatocytes in suspension, human hepatocytes, 90 min incubation, read-out: HHEP Cl (human hepatocytes intrinsic clearance))?
The CLint scaled was 59.3 mL/min/kg.

And the half-life ([5]; human, hepatocytes)?
Its half-life is 1.08 h.

And the IC50 ([6]; Homo sapiens, JeKo-1, 72 h, read-out: JeKo-1 IC50 (nM))?
The IC50 was 0.59 nM.

For `CC[C@H](C)[C@@H]([C@@H](CC(=O)N1CCC[C@H]1[C@H](OC)[C@@H](C)C(=O)N[C@H](C)[C@@H](O)c1ccccc1)OC)N(C)C(=O)[C@@H](NC(=O)[C@@H](NC)C(C)C)C(C)C` [MMAE, reference compound] (H-[NMeV]V[Dil][Dolaproine]-X1), which IC50 [1, 16] is on record?
The IC50 was 0.2 nM.

What about the IC50 [1, 17] of the same compound?
Its IC50 is 0.2 nM.

What about the IC50 ([1]; Jeko-1 P4, run 2, 72 h, read-out: Jeko-1 P4 (RUN2) IC50) of the same compound?
The IC50 was 0.2 nM.

Which “AC-SINS shift (self-interaction)” value [9] does the source give for Adalimumab here?
Its value is “low shift”.
